# Measurements as given in patent US20120329761A1, “USE OF TIGECYCLINE FOR TREATMENT OF CANCER” (UNIVERSITY HEALTH NETWORK, priority 2010, published 2012).
# Columns and labels:
# Complex I, II and IV = assay: Respiratory chain complex enzyme activity relative to citrate synthase; type: cell-based, human; settings: TEX cells, 2.5 μM and 5 μM, 72 hours
# Description: FIG. 4. Tigecycline decreases mitochondrial Cox-1 protein levels in TEX cells. (A) Cells from TEX, OCI-AML2 and two primary AML patients were treated with increasing concentrations (2.5 μM and 5 μM) of tigecycline for 36 and 48 hours of tigecycline. Total proteins were extracted and analyzed by western blotting for Cox-1, Cox-2, Cox-4, grp78, XIAP, actin and tubulin. (B) TEX and AML patient cells were treated with increasing concentrations (2.5 μM and 5 μM) of tigecycline. Cox-1, Cox-2, and Cox-4 mRNA expression relative 18S was determined by quantitative RT-PCR. Data is shown as mean±SD. (C) TEX cells were treated with increasing concentrations of tigecycline and chloramphenicol (CAP) for 72 hours. Complex I, II and IV enzyme activity relative to citrate synthase activity was determined as described in materials and methods. (D) Cells from TEX, primary AML patients, and normal donors were treated with increasing concentrations of tigecycline. Mitochondrial membrane potential (Δψ) was determined by staining cells with JC-1 dye, and flow cytometry analysis (Red/Green ratio). Reactive oxygen species generation (ROS) was determined by staining with h2-DCFDA and Dihydroethidium (DHE).
# The effect of tigecycline treatment on enzyme activity of the respiratory chain complexes relative to the mitochondrial non-respiratory chain enzyme citrate synthase was examined. TEX leukemia cells were treated with tigecycline for […] and then respiratory chain enzyme relative to citrate synthase activity was analyzed. Equivalent tigecycline concentrations (2.5 μM and 5 μM) decreased enzyme activities of Complexes I and IV relative to citrate synthase, while complex II activity was less affected (FIG. 4C).
# [1] = test system: primary AML patient samples; assay: Cell death by Annexin V staining, 48 hours; type: cell-based, human
# Description: (§1) FIG. 2. Tigecycline induces cell death and inhibits clonogenic growth in primary AML cells preferential over normal hematopoietic cells. Mononuclear cells from peripheral blood of leukemia patients (blast count >80%) and normal G-CSF expanded donors was treated with increasing concentrations of tigecycline for 48 hours. Cell viability was measured by Annexin-PI flow cytometry staining. Cell viability is expressed as a mean percentage plus or minus SD (n=3) relative to DMSO-treated cells. Mononuclear cells from primary AML patient samples (A, B) and normal peripheral blood cells (C) were plated in methylcelluose with 5 μM of Tigecycline. (D) Colony forming units were counted at 7 days (AML) and 14 days (Normal) post plating. Percent colony formation is represented compared to DMSO-treated plated cells.
# (§2) Primary human acute myeloid leukemia (AML) samples were isolated from fresh peripheral blood samples of consenting patients with AML. Similarly, primary normal hematopoietic cells were obtained from healthy consenting volunteers donating peripheral blood […] (PBSC) for stem cell transplantation. The mononuclear cells were isolated from the samples by Ficoll density centrifugation. Primary cells were cultured at 37° C. in IMDM supplemented with 20% FCS, 1 mM of L-glutamine and appropriate antibiotics. […]
# (§3) Cell growth and viability was assessed by the MTS assay (Promega, Madison, Wis.) according to the manufacturer's instructions. Apoptosis and cell death was measured by Annexin V-fluoroscein isothiocyanate (FITC; Biovision Research Products, Mountain View, Calif.), propidium iodide staining and flow cytometry according to the manufacturer's instructions and as previously described^30.
# (§4) Given the cytotoxicity of tigecycline towards leukemia cell lines, the ability of tigecycline to induce cell death in primary acute myeloid leukemia (AML) patient samples and normal hematopoietic cells was compared and evaluated. […] After incubation, cell viability was measured by Annexin V staining.
# [2] = test system: primary normal hematopoietic cells (PBSC); assay: Cell death by Annexin V staining, 48 hours; type: cell-based, human; settings: normal PBSC from G-CSF mobilized donors, n=5, 48 hours
# Description: as §1, §2, §3, §4
# primary human AML cells = type: in vivo, NOD-SCID mice; settings: 100 mg/kg i.p. daily for three weeks, vs vehicle control
# Description: FIG. 3. Tigecycline has anti-leukemia activity in vivo. (A, B) Human leukemia (OCI-AML2) were injected subcutaneously into the flank of SCID mice. Seven days after injection, once tumors were palpable, mice were treated with tigecycline (50 mg/kg or 100 mg/kg twice daily by i.p. injection) or vehicle control (n=10 per group). Fourteen days after injection of cells, mice were sacrificed, tumors excised and the volume and mass of the tumors were measured. The tumor mass and the mean volume+SD are shown. Differences in tumor volume and mass were analyzed by an unpaired t-test: * p<0.001. (C) Tumours from two control mice, and three tigecycline-treated mice were excised after 5 days of treatment and total proteins were extracted and analyzed by western blotting for Cox-1, Cox-2, Cox-4, and tubulin. […] Following treatment, human leukemia cell engraftment in the injected right femur was measured by FACS analysis for human CD45^+CD19^−CD33^+ cells. […] Six weeks later, human leukemia cell engraftment in the injected right femur was measured by FACS analysis for human CD45^+CD19^−CD33^+ cells. […]
# To assess tigecycline in mouse models of primary AML, primary human AML cells were isolated form a fresh peripheral blood sample from a patient with AML. A frozen aliquot was thawed, counted and resuspended in PBS. […]
structure (smiles),measurement,setting,value
CN(C)c1cc(NC(=O)CNC(C)(C)C)c(O)c2c1C[C@H]1C[C@H]3[C@H](N(C)C)C(O)=C(C(N)=O)C(=O)[C@@]3(O)C(O)=C1C2=O [tigecycline],Complex I enzyme activity relative to citrate synthase,"Complex I, II and IV",decreased
same,Complex II enzyme activity relative to citrate synthase,"Complex I, II and IV",less affected
same,Complex IV enzyme activity relative to citrate synthase,"Complex I, II and IV",decreased
same,LD50,"[1]; more resistant group of patients, n=7, 48 hours",> 9 µM
same,LD50,"[1]; sensitive subset of leukemia patients, n=13, 48 hours",5 µM
same,LD50,[2],> 10 µM
same,engraftment of human AML cells (CD45+CD33+CD19-) in marrow,primary human AML cells,significantly decreased
